Laboratory results published in patent US20240254138A1, “TRICYCLIC PYRIMIDINES AS CYCLIN-DEPENDENT KINASE 7 (CDK7) INHIBITORS” (JANSSEN PHARMACEUTICA NV, priority 2021, published 2024).
Where two headings read alike, the source gives them in different places.

What was measured:
[1] = tested on: RNA Polymerase II Serine 5 phosphorylation (Rpb1 CTD, downstream substrate of CDK7) in A549 cells; assay: Imaging-based cellular RNA PolII Ser5 phosphorylation assay in A549 cells; assay type: cell-based, human; conditions: wild-type CDK7, RNA PolII Ser5 phosphorylation, averaged over all measurements; for IC50: Homo sapiens, A549, A549 cells, read-out: CDK7_A549 Wild-type CDK7 (pIC50) (converted); for CDK7_A549 Wild-type CDK7 (pIC50): A549 cells
Outline: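 IC50 derived by fitting % control (DMSO high, 10 μM reference low) against concentration, with Hill slope. Readout: high-content imaging of phospho-Ser5 Rpb1 CTD antibody staining in fixed, permeabilized A549 cells exposed to compound 3 h after 20 h culture in 1% FBS DMEM.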

[2] = tested on: RNA Polymerase II Serine 5 phosphorylation in A549 cells overexpressing CDK7-mutant (C312S); assay: Imaging-based cellular RNA PolII Ser5 phosphorylation assay in A549 cells overexpressing CDK7-mutant (C312S); assay type: cell-based, human; conditions: RNA PolII Ser5 phosphorylation, averaged over all measurements; for IC50: Homo sapiens, A549, A549 cells overexpressing CDK7-mutant (C312S), read-out: CDK7_A549 mutant hCDK7(pIC50) (converted); for CDK7_A549 mutant hCDK7(pIC50): A549 cells overexpressing CDK7-mutant (C312S)
Outline: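 Readout was automated imaging of anti-phospho-Ser5 Rpb1 CTD immunofluorescence, with IC50 fitted to % control versus concentration. Cells were A549 stably overexpressing non-covalently targetable CDK7 C312S alongside wild-type, exposed to compound 3 h at 37 °C. DMSO and 10 μM reference compound served as controls.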

[3] = molecular target: CDK7/cyclinH/MAT1 trimeric complex (Homo sapiens, UniProt P50613); assay: In vitro CDK7 assay, potency of irreversible covalent inhibitors (kinact/KI), coupled PK/LDH ADP readout at 340 nm
Sequence of CDK7/cyclinH/MAT1 trimeric complex (P50613 whole entry): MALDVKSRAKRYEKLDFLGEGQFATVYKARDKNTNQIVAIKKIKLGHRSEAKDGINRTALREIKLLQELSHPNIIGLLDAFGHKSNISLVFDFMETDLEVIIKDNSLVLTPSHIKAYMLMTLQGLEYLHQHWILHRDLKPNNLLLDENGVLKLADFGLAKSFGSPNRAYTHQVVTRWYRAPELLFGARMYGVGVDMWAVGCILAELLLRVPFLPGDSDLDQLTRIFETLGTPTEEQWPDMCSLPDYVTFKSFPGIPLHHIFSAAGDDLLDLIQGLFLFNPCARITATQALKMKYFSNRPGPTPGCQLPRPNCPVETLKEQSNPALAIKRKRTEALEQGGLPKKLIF
Sequence of CDK7/cyclinH/MAT1 trimeric complex (P51946 whole entry partner): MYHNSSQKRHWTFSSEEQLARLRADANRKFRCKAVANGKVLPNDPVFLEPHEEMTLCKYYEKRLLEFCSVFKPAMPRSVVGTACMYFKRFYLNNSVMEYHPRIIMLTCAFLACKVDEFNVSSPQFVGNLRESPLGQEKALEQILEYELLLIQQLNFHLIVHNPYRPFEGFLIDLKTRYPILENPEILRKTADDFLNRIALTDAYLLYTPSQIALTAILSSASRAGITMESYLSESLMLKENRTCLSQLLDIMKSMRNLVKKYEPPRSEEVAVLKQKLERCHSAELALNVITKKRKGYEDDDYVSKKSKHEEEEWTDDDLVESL
Sequence of CDK7/cyclinH/MAT1 trimeric complex (P51948 whole entry partner): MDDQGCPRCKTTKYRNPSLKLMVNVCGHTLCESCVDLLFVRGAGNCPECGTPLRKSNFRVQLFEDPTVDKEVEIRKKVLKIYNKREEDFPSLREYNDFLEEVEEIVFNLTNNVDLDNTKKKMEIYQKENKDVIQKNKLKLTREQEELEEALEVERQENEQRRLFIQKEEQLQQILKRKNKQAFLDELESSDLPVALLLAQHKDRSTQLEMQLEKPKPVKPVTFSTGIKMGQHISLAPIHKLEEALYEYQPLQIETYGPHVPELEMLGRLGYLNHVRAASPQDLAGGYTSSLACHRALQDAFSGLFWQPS

[4] = read-out: CDK7 (20 nM enz.) (kinact/KI, M^−1*s^−1), 20 nM enzyme
[5] = CDK7 (20 nM enz.) (KI, μM), 20 nM enzyme
[6] = read-out: CDK7 (20 nM enz.) (kinact, s^−1), 20 nM enzyme
[7] = read-out: CDK7 (20 nM enz.) (kobs/[I], M^−1*s^−1), 20 nM enzyme

Row | SMILES | IC50 [1] [nM] | IC50 [2] [nM] | kinact/KI [3, 4] [M⁻¹ s⁻¹] | Ki [3, 5] [µM] | kinact [3, 6] [s⁻¹] | other results
1 | C=CC(=O)N1CC[C@@H](N2CC(c3cc4c(c(C(F)(F)F)n3)OCc3c(-c5cnn(C)c5)ccnc3N4)C2)C1 (single isomer, unassigned) [Compound 495] | 145 | > 10000 | 754 | 0.0763 | 5.75e-05 | 
2 | C=CC(=O)N1CC[C@H](N2CC(c3cc4c(c(C(F)(F)F)n3)OCc3c(-c5cnn(C)c5)ccnc3N4)C2)C1 (single isomer, unassigned) [Compound 497] | 138 | > 10000 | 1270 | 0.0437 | 5.55e-05 | 
3 | CC#CC(=O)N1CC(N2CCC(c3cc4c(c(C5CC5)n3)O[C@H](C)c3c(N5CCOCC5)ccnc3N4)CC2)C1 (single isomer, unassigned) [Compound 499] |  |  |  |  |  | CDK7_A549 Wild-type CDK7 (pIC50) [1]: 5.74; CDK7_A549 mutant hCDK7(pIC50) [2]: <5; CDK7 (20 nM enz.) (kinact, s^−1) ([3]; 20 nM enzyme): 4.482e-05 s⁻¹; CDK7 (20 nM enz.) (kinact/KI, M^−1*s^−1) ([3]; 20 nM enzyme): 20.4314 M⁻¹ s⁻¹; Ki ([3]; read-out: CDK7 (20 nM enz.) (KI), 20 nM enzyme): 2.19 µM
4 | C=CC(=O)N1CC[C@H](N2CC(c3cc4c(c(C(F)(F)F)n3)O[C@@H](C)c3c(N5CCOCC5)ccnc3N4)C2)C1 (single isomer, unassigned) [Compound 500] | 1200 | > 10000 | 12.7 |  |  | 
5 | C=CC(=O)N1CC[C@H](N2CC(c3cc4c(c(C(F)(F)F)n3)O[C@H](C)c3c(N5CCOCC5)ccnc3N4)C2)C1 (single isomer, unassigned) [Compound 501] |  | > 10000 |  | 2.35 | 3.59e-05 | CDK7_A549 Wild-type CDK7 (pIC50) [1]: 5.78; CDK7 (20 nM enz.) (kinact/KI, M^−1*s^−1) ([3]; 20 nM enzyme): 15.2689 M⁻¹ s⁻¹
6 | C=CC(=O)N1CC[C@H](N2CC(c3cc4c(c(C(F)(F)F)n3)O[C@H](C)c3c(N5CCOCC5)ccnc3N4)C2)C1 (single isomer, unassigned) [Compound 503] |  |  |  |  |  | CDK7_A549 Wild-type CDK7 (pIC50) [1]: 6.88; CDK7_A549 mutant hCDK7(pIC50) [2]: 5.12; CDK7 (20 nM enz.) (kinact/KI, M^−1*s^−1) ([3]; 20 nM enzyme): 629.38 M⁻¹ s⁻¹
7 | C=CC(=O)N1CC[C@@H](N2CC(c3cc4c(c(C(F)(F)F)n3)O[C@@H](C)c3c(N5CCOCC5)ccnc3N4)C2)C1 (single isomer, unassigned) [Compound 504] | 47.9 | 7760 | 681 |  |  | 
8 | CC#CC(=O)N1CC(N2CCC(c3cc4c(c(C)n3)O[C@H](C)c3c(N5CCOCC5)ccnc3N4)CC2)C1 (single isomer, unassigned) [Compound 510] |  |  |  | 0.052 |  | CDK7_A549 Wild-type CDK7 (pIC50) [1]: 6.72; CDK7_A549 mutant hCDK7(pIC50) [2]: <5; CDK7 (20 nM enz.) (kinact, s^−1) ([3]; 20 nM enzyme): 3.092e-05 s⁻¹; CDK7 (20 nM enz.) (kinact/KI, M^−1*s^−1) ([3]; 20 nM enzyme): 594.812 M⁻¹ s⁻¹
9 | CC#CC(=O)N1CC(N2CC[C@@H](c3cc4c(c(C)n3)O[C@@H](C)c3c(N5CCOCC5)ccnc3N4)N(C)CC2)C1 (single isomer, unassigned) [Compound 521] | 5250 | > 10000 | 15.9 | 1.71 | 2.72e-05 | 
10 | CC#CC(=O)N1CC(N2CC[C@H](c3cc4c(c(C)n3)O[C@H](C)c3c(N5CCOCC5)ccnc3N4)N(C)CC2)C1 (single isomer, unassigned) [Compound 525] | 141 | 5370 | 1320 | 0.0109 | 1.44e-05 | 
11 | CC#CC(=O)N1CC(N2CC[C@@H](c3cc4c(c(C)n3)O[C@H](C)c3c(N5CCOCC5)ccnc3N4)N(C)CC2)C1 (single isomer, unassigned) [Compound 527] | 9770 | > 10000 | 8.74 | 1.81 | 1.58e-05 | 
12 | CC#CC(=O)N1CC(N2CC[C@H](c3cc4c(c(C)n3)O[C@@H](C)c3c(N5CCOCC5)ccnc3N4)N(C)CC2)C1 (single isomer, unassigned) [Compound 528] | 603 | > 10000 | 174 | 0.0976 | 1.7e-05 | 
13 | CC#CC(=O)N1CC(N2CCC(c3cc4c(c(C)n3)O[C@H](C)c3c(-c5cnn(C)c5)ccnc3N4)CC2)C1 (single isomer, unassigned) [Compound 541] | 155 | > 10000 | 2710 | 0.0182 | 4.94e-05 | 
14 | C=CC(=O)Nc1ccc(C(=O)Nc2ccc3c(c2)Nc2ncc(C)c(C4CCOCC4)c2CO3)cc1 [Compound 2] | 794 | > 10000 |  |  |  | Ki ([3]; CDK7 (KI(μM)), […], 1 mM ATP, room temperature, averaged values over all measurements): 0.129 µM; kinact ([3]; read-out: CDK7 (kinact, s^−1), kinact = maximal rate of inactivation, 1 mM ATP, room temperature, averaged values over all measurements): 7.86e-05 s⁻¹; kinact/KI ([3]; read-out: CDK7 (kinact/KI, M^−1*s^−1), potency of irreversible covalent inhibitors, 1 mM ATP, room temperature, averaged values over all measurements): 609 M⁻¹ s⁻¹
15 | C=CC(=O)N1CC(N2CCC(c3ccc4c(c3)Nc3nccc(C5CCOCC5)c3CO4)CC2)C1 [Compound 3] |  | > 10000 |  |  |  | CDK7_A549 Wild-type CDK7 (pIC50) [1]: 6.89; CDK7 (kinact/KI, M^−1*s^−1) ([3]; potency of irreversible covalent inhibitors, 1 mM ATP, room temperature, averaged values over all measurements): 2787.5 M⁻¹ s⁻¹

Further lines, with some results ahead:

Row | IC50 [1] [nM] | IC50 [2] [nM] | kinact/KI [3, 4] [M⁻¹ s⁻¹] | Ki [3, 5] [µM] | kinact [3, 6] [s⁻¹] | SMILES | other results
16 | 58.9 | 3470 | 305 |  |  | C=CC(=O)N1CCC(N2CC(c3cc4c(c(C#N)n3)O[C@H](C)c3c(N5CCOCC5)ccnc3N4)C2)CC1 (single isomer, unassigned) [Compound 489] | 
17 | 479 | > 10000 | 61.4 | 0.403 | 2.48e-05 | C=CC(=O)N1CCC(N2CC(c3cc4c(c(C#N)n3)O[C@@H](C)c3c(N5CCOCC5)ccnc3N4)C2)CC1 (single isomer, unassigned) [Compound 491] | 
18 | 148 | > 10000 | 594 | 0.0867 | 5.15e-05 | CC#CC(=O)N1CC(N2CCC(c3cc4c(c(C5CC5)n3)O[C@@H](C)c3c(N5CCOCC5)ccnc3N4)CC2)C1 (single isomer, unassigned) [Compound 498] | 
19 | 603 | > 10000 | 9.74 |  |  | CC#CC(=O)N1CCC(N2CC(c3cc4c(c(C(F)(F)F)n3)O[C@@H](C)c3c(N5CCOCC5)ccnc3N4)C2)CC1 (single isomer, unassigned) [Compound 502] | 
20 | 38 | 2400 | 246 |  |  | CC#CC(=O)N1CCC(N2CC(c3cc4c(c(C(F)(F)F)n3)O[C@H](C)c3c(N5CCOCC5)ccnc3N4)C2)CC1 (single isomer, unassigned) [Compound 505] | 
21 | 102 | 8320 |  |  |  | C=CC(=O)N1CC[C@@H](N2CC(c3cc4c(c(C#N)n3)O[C@H](C)c3c(N5CCOCC5)ccnc3N4)C2)C1 (single isomer, unassigned) [Compound 506] | kinact/KI [3, 7]: 348 M⁻¹ s⁻¹
22 | 110 | 8130 |  |  |  | C=CC(=O)N1CC[C@H](N2CC(c3cc4c(c(C#N)n3)O[C@H](C)c3c(N5CCOCC5)ccnc3N4)C2)C1 (single isomer, unassigned) [Compound 507] | kinact/KI [3, 7]: 389 M⁻¹ s⁻¹
23 | 2880 | > 10000 | 6.21 |  |  | C=CC(=O)N1CC[C@H](N2CC(c3cc4c(c(C#N)n3)O[C@@H](C)c3c(N5CCOCC5)ccnc3N4)C2)C1 (single isomer, unassigned) [Compound 508] | 
24 | 2400 | > 10000 | 14.5 | 1.28 | 1.85e-05 | C=CC(=O)N1CC[C@@H](N2CC(c3cc4c(c(C#N)n3)O[C@@H](C)c3c(N5CCOCC5)ccnc3N4)C2)C1 (single isomer, unassigned) [Compound 509] | 
25 | 3020 | > 10000 | 14.3 | 2.91 | 4.23e-05 | CC#CC(=O)N1CCC(N2CC(c3cc4c(c(C#N)n3)O[C@H](C)c3c(C5CCOCC5)ccnc3N4)C2)CC1 (single isomer, unassigned) [Compound 517] | 
26 | 64.6 | 4070 | 4340 | 0.0075 | 3.26e-05 | CC#CC(=O)N1CCC(N2CC(c3cc4c(c(C#N)n3)O[C@@H](C)c3c(C5CCOCC5)ccnc3N4)C2)CC1 (single isomer, unassigned) [Compound 518] | 
27 | 158 | > 10000 |  | 0.00977 | 2.91e-05 | CC#CC(=O)N1CC(N2CCC(c3cc4c(c(C#N)n3)O[C@@H](C)c3c(N5CCOCC5)ccnc3N4)CC2)C1 (single isomer, unassigned) [Compound 520] | CDK7 (20 nM enz.) (kinact/KI, M^−1*s^−1) ([3]; 20 nM enzyme): 2981 M⁻¹ s⁻¹
28 |  |  |  | 0.0082 |  | CC#CC(=O)N1CC(N2CCC(c3cc4c(c(C#N)n3)O[C@@H](C)c3c(N5CCOCC5)ccnc3N4)CC2)C1 (single isomer, unassigned) [Compound 542] | CDK7_A549 Wild-type CDK7 (pIC50) [1]: 6.62; CDK7_A549 mutant hCDK7(pIC50) [2]: <5; CDK7 (20 nM enz.) (kinact, s^−1) ([3]; 20 nM enzyme): 0.0000556 s⁻¹; CDK7 (20 nM enz.) (kinact/KI, M^−1*s^−1) ([3]; 20 nM enzyme): 6751 M⁻¹ s⁻¹
